The values that follow are results of earlier work, collected in patent US20090081312A1, “PREVENTION AND TREATMENT OF ALVEOLAR OSTEITIS” (priority 2007, published 2009).

Molecules are shown by their SMILES.

The series concerns bacterial cell growth. The following applies: silver ion; B Gibbins, Ostomy Wound Management 2003.

`[Ag+]` [silver ion, silver]: the “quantity sufficient to prevent bacterial cell growth” value is “one”.
